This passage reports mutagenic call and call results from PubChem BioAssay AID1259408 (Genetic Toxicology Data Bank (GENE-TOX), 2018).

The data set concerns GENE-TOX genotoxicity assays, various organisms and cells. The data set is described as follows: GENE-TOX mutagenicity studies. The settings on record: for call: Assay Type: In vivo carcinogenicity studies.
Where [1] appears, read: Species/Cell Type: Escherichia coli polA (W3119 vs P3478), Assay Type: Rec-assay, DNA effects (bacterial DNA repair), Assay Code: RE1+, Evaluation Type: Evaluation A (Pre-1980).
[2] abbreviates: Species/Cell Type: Human lymphocytes, Assay Type: Sister-chromatid exchange (SCE) in vitro, Assay Code: SCL+D, Dose Response: With dose response, Evaluation Type: Evaluation B (Post-1980).
Where [3] appears, read: Species/Cell Type: Human, Assay Type: Sister-chromatid exchange (SCE) in vitro, Assay Code: SC1+D, Dose Response: With dose response, Evaluation Type: Evaluation B (Post-1980).
Setting [4] is: Species/Cell Type: Mouse, Sex: Male, Assay Type: Sperm morphology, Assay Code: SPI-, Evaluation Type: Evaluation A (Pre-1980).
[5] abbreviates: Species/Cell Type: Nonhuman, Assay Type: Chromosome aberrations in vitro, Assay Code: CY&+, Evaluation Type: Evaluation A (Pre-1980).
The mark [6] stands for this setting: Species/Cell Type: Salmonella typhimurium (one or more of the five standard strains: TA98, TA100, TA1535, TA1537, and TA1538), Assay Type: Histidine reverse gene mutation, Ames assay, Assay Code: SAL+, Evaluation Type: Evaluation A (Pre-1980).
Setting [7] is: Species/Cell Type: Salmonella typhimurium, Assay Type: Forward and reverse gene mutation, body fluid assay, Assay Code: BFU+, Evaluation Type: Evaluation A (Pre-1980).
Where [8] appears, read: Species/Cell Type: Human lymphocytes, Assay Type: Sister-chromatid exchange (SCE) in vivo, Assay Code: SCY+, Evaluation Type: Evaluation B (Post-1980).

Activity calls are given as the source filed them. How the calls were made is not given here.

With `COc1cc2c(c3oc(=O)c4c(c13)CCC4=O)[C@@H]1C=CO[C@@H]1O2`, the mutagenic call (Species/Cell Type: Bacillus subtilis (H17 vs M45), Assay Type: Rec-assay, spot test, DNA effects (bacterial DNA repair), Assay Code: REW+, Evaluation Type: Evaluation A (Pre-1980)) is “active; positive”; the mutagenic call (Species/Cell Type: Chinese hamster lung (V79) cells, Assay Type: Forward gene mutation at the HPRT or ouabain locus, Assay Code: V79+, Evaluation Type: Evaluation A (Pre-1980)) is “active; positive”; the mutagenic call (Species/Cell Type: Drosophila melanogaster, Assay Type: Sex-linked recessive lethal gene mutation, Assay Code: SRL+, Evaluation Type: Evaluation A (Pre-1980)) was “active; positive”; the mutagenic call under setting [1] was “active; positive”; the mutagenic call (Species/Cell Type: Human diploid fibroblasts, Assay Type: Unscheduled DNA synthesis (UDS) in vitro, DNA effects, Assay Code: UDH+D*, Activation: With metabolic activation, Dose Response: With dose response, Evaluation Type: Evaluation A (Pre-1980)) was “active; positive”; the mutagenic call (Species/Cell Type: Human lymphocytes, Assay Type: Sister-chromatid exchange (SCE) in vitro, Assay Code: SCL+D, Dose Response: With dose response, Evaluation Type: Evaluation A (Pre-1980)) is “active; positive”. The mutagenic call is, setting by setting: under setting [2], “active; positive”; (Species/Cell Type: Human, Assay Type: Sister-chromatid exchange (SCE) in vitro, Assay Code: SC1+D, Dose Response: With dose response, Evaluation Type: Evaluation A (Pre-1980)) “active; positive”; under setting [3], “active; positive”; (Species/Cell Type: Mammalian germ cells, Sex: Male, Assay Type: Chromosome aberrations in vivo, Assay Code: CY9T, Evaluation Type: Evaluation A (Pre-1980)) “no conclusion”; (Species/Cell Type: Mammalian polychromatic erythrocytes, Assay Type: Micronucleus test, chromosome aberrations, Assay Code: MNT+, Evaluation Type: Evaluation A (Pre-1980)) “active; positive”; under setting [4], “inactive; negative”. The mutagenic call (Species/Cell Type: Neurospora crassa, Assay Type: Forward gene mutation, Assay Code: NEF+, Evaluation Type: Evaluation A (Pre-1980)) was “active; positive”; the mutagenic call under setting [5] is “active; positive”; the mutagenic call (Species/Cell Type: Nonhuman, Assay Type: Sister-chromatid exchange (SCE) in vitro, Assay Code: SC2+D, Dose Response: With dose response, Evaluation Type: Evaluation A (Pre-1980)) was “active; positive”; the mutagenic call (Species/Cell Type: Nonhuman, Assay Type: Sister-chromatid exchange (SCE) in vitro, Assay Code: SC2+D, Dose Response: With dose response, Evaluation Type: Evaluation B (Post-1980)) was “active; positive”; the mutagenic call (Species/Cell Type: Nonhuman, Assay Type: Sister-chromatid exchange (SCE) in vivo, Assay Code: SC3+, Evaluation Type: Evaluation A (Pre-1980)) was “active; positive”; the mutagenic call (Species/Cell Type: Nonhuman, Assay Type: Sister-chromatid exchange (SCE) in vivo, Assay Code: SC3+, Evaluation Type: Evaluation B (Post-1980)) was “active; positive”. Also, the mutagenic call (Species/Cell Type: Rat primary hepatocytes, Assay Type: Unscheduled DNA synthesis (UDS) in vitro, DNA effects, Assay Code: UDP+, Evaluation Type: Evaluation A (Pre-1980)) is “active; positive”; the mutagenic call (Species/Cell Type: Rat, Sex: Male, Assay Type: Sperm morphology, Assay Code: SPA-, Evaluation Type: Evaluation A (Pre-1980)) was “inactive; negative”; the mutagenic call (Species/Cell Type: Saccharomyces cerevisiae, Assay Type: Mitotic recombination or gene conversion, Assay Code: YEC+, Evaluation Type: Evaluation A (Pre-1980)) was “active; positive”; the mutagenic call (Species/Cell Type: Saccharomyces cerevisiae, Assay Type: Mitotic recombination or gene conversion, Assay Code: YEH+, Evaluation Type: Evaluation A (Pre-1980)) is “active; positive”; the mutagenic call under setting [6] was “active; positive”; the mutagenic call under setting [7] was “active; positive”. The mutagenic call runs as follows: (Species/Cell Type: Salmonella typhimurium, Assay Type: Forward and reverse gene mutation, host-mediated assay, Assay Code: HMA+, Evaluation Type: Evaluation A (Pre-1980)) “active; positive”; (Species/Cell Type: Syrian hamster embryo (SA7/SHE) cells, Assay Type: Cell transformation, viral enhanced, Assay Code: CT7+, Evaluation Type: Evaluation A (Pre-1980)) “active; positive”; (Species/Cell Type: Syrian hamster embryo (SHE) cells, Assay Type: Cell transformation, clonal assay, Assay Code: CTC+D, Dose Response: With dose response, Evaluation Type: Evaluation A (Pre-1980)) “active; positive”; (Species/Cell Type: Syrian hamster embryo (SHE) cells, Assay Type: Cell transformation, focus assay, Assay Code: CTF+, Evaluation Type: Evaluation A (Pre-1980)) “active; positive”. The call (Species/Cell Type: Nonhuman, Assay Code: CCG+, Evaluation Type: Evaluation A (Pre-1980)) is “active; positive”.
For `CN(N=O)C(=O)c1ccccc1`, the mutagenic call under setting [6] is “active; positive”.
As for `O=[N+]([O-])c1ccc(Nc2ccc(N=C=S)cc2)cc1`, the mutagenic call under setting [7] is “active; positive”.
On to `CO[C@@H]1C[C@](C)(O)Cc2cc3c(c(O)c21)C(=O)c1c(O)cc2c(c1C3=O)O[C@@H]1O[C@@]2(C)[C@H](O)[C@@H](N(C)C)[C@@H]1O`, for which the mutagenic call is “active; positive” (Species/Cell Type: Mammalian polychromatic erythrocytes, Assay Type: Micronucleus test, chromosome aberrations, Assay Code: MNT+, Evaluation Type: Evaluation B (Post-1980)) and “active; positive” (Species/Cell Type: Nonhuman, Assay Type: Sister-chromatid exchange (SCE) in vitro, Assay Code: SC2+, Evaluation Type: Evaluation B (Post-1980)).
`O=[N+]([O-])c1cccc2cn[nH]c12`: under setting [6], the mutagenic call was “active; positive”.
In the case of `O=C(Nc1ccc([N+](=O)[O-])cc1Cl)c1cc(Cl)ccc1O`, the mutagenic call runs as follows: under setting [2], “active; positive”; under setting [8], “active; positive”; under setting [3], “active; positive”.
As to `CN(C#N)N=O`, the mutagenic call reads like this: under setting [5], “active; positive”; under setting [6], “active; positive”; (Species/Cell Type: Syrian hamster embryo (SHE) cells, Assay Type: Cell transformation, clonal assay, Assay Code: CTC+, Evaluation Type: Evaluation A (Pre-1980)) “active; positive”.
For `Nc1ccccc1Cl`, the mutagenic call runs as follows: under setting [1], “active; positive”; under setting [4], “inactive; negative”; (Species/Cell Type: Saccharomyces cerevisiae, Assay Type: Mitotic recombination or gene conversion, Assay Code: YEH-, Evaluation Type: Evaluation A (Pre-1980)) “inactive; negative”; (Species/Cell Type: Syrian hamster embryo (SHE) cells, Assay Type: Cell transformation, clonal assay, Assay Code: CTC-, Evaluation Type: Evaluation A (Pre-1980)) “inactive; negative”.
`Cc1cc2ccccc2c2c(F)cc3ccccc3c12`: for the setting “Species/Cell Type: Salmonella typhimurium (one or more of the five standard strains: TA98, TA100, TA1535, TA1537, and TA1538), Assay Type: Histidine reverse gene mutation, Ames assay, Assay Code: SALT, Evaluation Type: Evaluation A (Pre-1980)”, the mutagenic call was “no conclusion”.
`OC(O)C(Cl)(Cl)Cl`: the mutagenic call was “active; positive” (Species/Cell Type: Aspergillus nidulans, Assay Type: Aneuploidy, chromosome aberrations, Assay Code: ASN+, Evaluation Type: Evaluation A (Pre-1980)); “inactive; negative” (Species/Cell Type: Aspergillus nidulans, Assay Type: Mitotic recombination, Assay Code: ASG-, Evaluation Type: Evaluation A (Pre-1980)); “no conclusion” (Species/Cell Type: Mammalian polychromatic erythrocytes, Assay Type: Micronucleus test, chromosome aberrations, Assay Code: MNTT, Evaluation Type: Evaluation A (Pre-1980)); “inactive; negative” under setting [4]; “inactive; negative” (Species/Cell Type: Neurospora crassa, Assay Type: Aneuploidy, chromosome aberrations, Assay Code: NEN-, Evaluation Type: Evaluation A (Pre-1980)); “active; positive” under setting [6]. Further, where the note is “Species/Cell Type: Nonhuman, Assay Code: CCGT, Evaluation Type: Evaluation A (Pre-1980)”, the call is recorded as “no conclusion”.
As to `Cc1c2ccccc2c(C(=O)O)c2ccc3ccccc3c12`, the mutagenic call (Species/Cell Type: Drosophila melanogaster, Assay Type: Sex-linked recessive lethal gene mutation, Assay Code: SRLT, Evaluation Type: Evaluation A (Pre-1980)) was “no conclusion”.
Turning to `CN1C(C(=O)Nc2ccccn2)=C(O)c2ccccc2S1(=O)=O`, under setting [8], the mutagenic call is “active; positive”.
`O=C1O[C@H]([C@H](O)CO)C(O)=C1O`: the mutagenic call (Species/Cell Type: Human, Assay Type: Sister-chromatid exchange (SCE) in vitro, Assay Code: SC1T, Evaluation Type: Evaluation B (Post-1980)) is given as “no conclusion”.
Regarding `c1cc2c(cc1CC1CO1)OCO2` (stereo unspecified), under setting [6], the mutagenic call is “active; positive”.
